The results in this text go back to patent US10988477B2 (Merck Patent GmbH, priority 2018, dated 2021).

In one test the target is GCN2 kinase (Homo sapiens, UniProt Q9P2K8). Put plainly: GCN2 enzyme inhibition assay (Transcreener ADP2 fluorescence polarization). Format: biochemical. Particulars: 280 μM ATP. Put shortly: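 FP detection of ADP (antibody plus Alexa633 tracer) after a 1 h, 25 °C kinase reaction. Enzyme 4 nM, ATP 280 μM, (RS)7 peptide 200 μM, Tris pH 7.5 buffer with MgCl2 and DTT. Percent inhibition fitted by non-linear tight-binding algorithm for IC50 and Ki(app).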
GCN2 kinase, sequence (Q9P2K8 whole entry): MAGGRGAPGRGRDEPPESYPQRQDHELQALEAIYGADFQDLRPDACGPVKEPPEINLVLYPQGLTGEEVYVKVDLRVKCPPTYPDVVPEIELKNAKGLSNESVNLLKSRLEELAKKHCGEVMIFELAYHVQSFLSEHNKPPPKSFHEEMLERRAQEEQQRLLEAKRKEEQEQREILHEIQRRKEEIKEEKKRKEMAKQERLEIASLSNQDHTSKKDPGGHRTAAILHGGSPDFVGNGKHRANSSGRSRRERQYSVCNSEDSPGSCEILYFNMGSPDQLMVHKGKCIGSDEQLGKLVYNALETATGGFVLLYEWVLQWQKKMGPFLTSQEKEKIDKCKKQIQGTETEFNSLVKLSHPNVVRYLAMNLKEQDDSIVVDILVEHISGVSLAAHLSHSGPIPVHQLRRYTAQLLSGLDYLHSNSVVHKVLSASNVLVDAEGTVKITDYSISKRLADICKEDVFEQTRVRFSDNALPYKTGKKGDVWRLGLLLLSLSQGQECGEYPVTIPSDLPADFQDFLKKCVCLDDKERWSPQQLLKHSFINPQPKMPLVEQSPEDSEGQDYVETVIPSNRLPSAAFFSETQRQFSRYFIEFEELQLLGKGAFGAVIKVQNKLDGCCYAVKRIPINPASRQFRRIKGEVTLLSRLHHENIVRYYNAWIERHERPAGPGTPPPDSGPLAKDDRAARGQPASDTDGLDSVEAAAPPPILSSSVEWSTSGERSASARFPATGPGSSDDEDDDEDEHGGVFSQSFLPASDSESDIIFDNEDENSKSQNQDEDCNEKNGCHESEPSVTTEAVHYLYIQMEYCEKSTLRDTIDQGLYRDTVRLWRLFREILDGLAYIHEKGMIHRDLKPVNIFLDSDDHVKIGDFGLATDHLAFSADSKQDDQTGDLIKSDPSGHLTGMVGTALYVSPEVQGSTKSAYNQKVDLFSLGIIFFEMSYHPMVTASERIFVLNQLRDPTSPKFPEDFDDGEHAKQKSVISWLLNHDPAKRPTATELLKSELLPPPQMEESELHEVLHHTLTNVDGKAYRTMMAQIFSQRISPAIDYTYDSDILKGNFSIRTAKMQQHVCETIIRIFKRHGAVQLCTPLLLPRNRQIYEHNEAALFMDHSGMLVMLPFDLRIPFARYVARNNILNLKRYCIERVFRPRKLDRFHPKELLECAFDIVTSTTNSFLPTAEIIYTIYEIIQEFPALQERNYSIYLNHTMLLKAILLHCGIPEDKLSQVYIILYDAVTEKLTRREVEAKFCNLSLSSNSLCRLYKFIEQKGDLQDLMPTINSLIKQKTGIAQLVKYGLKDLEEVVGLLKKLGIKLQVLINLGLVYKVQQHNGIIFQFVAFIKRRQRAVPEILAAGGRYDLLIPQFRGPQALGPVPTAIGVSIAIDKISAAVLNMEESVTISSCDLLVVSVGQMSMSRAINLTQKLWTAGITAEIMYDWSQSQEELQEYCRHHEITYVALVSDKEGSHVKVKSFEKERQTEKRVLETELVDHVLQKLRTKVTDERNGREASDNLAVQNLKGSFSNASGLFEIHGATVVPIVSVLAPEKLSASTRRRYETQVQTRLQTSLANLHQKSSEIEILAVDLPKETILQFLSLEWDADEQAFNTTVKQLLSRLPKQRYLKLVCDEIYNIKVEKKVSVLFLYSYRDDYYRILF

The target of test [1] is intracellular GCN2 (phosphorylation of the GCN2 substrate eIF2α) (Homo sapiens, UniProt Q9P2K8). Put plainly: GCN2 cellular inhibition assay (AlphaScreen SureFire P-eIF2α Ser51, borrelidin-treated U2OS cells). Format: cell-based. Particulars: biomarker assay, phosphorylated eIF2α Ser51 in borrelidin-treated U2OS cells. Put shortly: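 U2OS, overnight attach; cpd 4-fold serial dil. from 40 μM final; borrelidin 10 μM, 1 h 37 °C/5% CO2; lyse; AlphaScreen P-eIF2α Ser51 (acceptor 2 h, donor overnight, RT, dark); % inhib. vs borrelidin-only.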
intracellular GCN2 (phosphorylation of the GCN2 substrate eIF2α), sequence (Q9P2K8 whole entry): as above
Background: In Alpha technology, singlet oxygen from a donor bead excites a nearby acceptor bead.

Setting [2] is: Enzyme activity for compounds of Formula IV, Ki(app), 25° C.
Setting [3] is: compounds of Formula II, 4 nM GCN2 kinase.

Molecules are shown by their SMILES.

`FC(F)(F)c1cn2c(-c3nccc(N4CCCC(c5ncco5)C4)n3)cnc2cn1` (stereo not drawn) [IV-686, 2-(1-(2-(6-(Trifluoromethyl)imidazo[1,2-a]pyrazin-3-yl)pyrimidin-4-yl)piperidin-3-yl)oxazole] returned a Ki on GCN2 kinase (setting [2]) of 100 to 1000 nM. Further, the 50% inhibitory concentration (IC50) (usually the concentration that gives 50% inhibition) in test [1] (compounds of Formula IV) was 500 to 5000 nM.
`CC1CC(C(N)=O)C(C)N(c2cc(-c3cnc4ccc(C(F)(F)F)nn34)ncn2)C1` (single isomer, unassigned) [II-717, 2,5-Dimethyl-1-[6-[6-(trifluoromethyl)imidazo[1,2-b]pyridazin-3-yl]pyrimidin-4-yl]piperidine-3-carboxamide] returned a Ki at GCN2 kinase (setting [3]) of less than 10 nM. The compound further displayed an IC50 in test [1] (compounds of Formula II) of less than 500 nM.
The compound `CP(C)(=O)C1CC(c2cn[nH]c2)CN(c2ccnc(-c3cnc4cnc(C(F)(F)F)cn34)n2)C1` (stereo not drawn) [IV-590, (5-(1H-Pyrazol-4-yl)-1-(2-(6-(trifluoromethyl)imidazo[1,2-a]pyrazin-3-yl)pyrimidin-4-yl)piperidin-3-yl)dimethylphosphine oxide] registered a Ki at GCN2 kinase (setting [2]) of 100 to 1000 nM. Moreover, in test [1] (compounds of Formula IV), the IC50 is more than 5000 nM.
For `Cc1nc(C2CCCN(c3ccnc(-c4cnc5cnc(Br)cn45)n3)C2)c[nH]1` (single isomer, unassigned) [IV-375, 6-Bromo-3-(4-(3-(2-methyl-1H-imidazol-4-yl)piperidin-1-yl)pyrimidin-2-yl)imidazo[1,2-a]pyrazine], in that order: less than 10 nM and less than 500 nM.
For `CC(=O)N1CCN(c2cncc(-c3cnc4cnc(C(N)=O)cn34)n2)CC1` [IV-183, 3-(6-(4-Acetylpiperazin-1-yl)pyrazin-2-yl)imidazo[1,2-a]pyrazine-6-carboxamide], the Ki at GCN2 kinase (setting [2]) lay within 100 to 1000 nM. The IC50 in test [1] (compounds of Formula IV) was more than 5000 nM.
With `CN1CC2(C1)CN(c1cc(-c3cnc4ccc(C(F)F)nn34)cc(N3CCCC(CNS(C)(=O)=O)C3)n1)C2` (stereo not drawn) [II-72, N-((1-(4-(6-(Difluoromethyl)imidazo[1,2-b]pyridazin-3-yl)-6-(6-methyl-2,6-diazaspiro[3.3]heptan-2-yl)pyridin-2-yl)piperidin-3-yl)methyl)methanesulfonamide], the Ki at GCN2 kinase (setting [3]) is less than 10 nM. This compound also yielded an IC50 in test [1] (compounds of Formula II) of less than 500 nM.
In turn, `CC1CN(c2nccc(-c3cnc4cnc(Br)cn34)n2)C(C)C(c2cn[nH]c2)N1` (single isomer, unassigned) [IV-403, 6-Bromo-3-(2-(2,5-dimethyl-3-(1H-pyrazol-4-yl)piperazin-1-yl)pyrimidin-4-yl)imidazo[1,2-a]pyrazine] showed a Ki at GCN2 kinase (setting [2]) of less than 10 nM. For the same compound, the IC50 in test [1] (compounds of Formula IV) was less than 500 nM.
`CC(=O)N1CCCC(c2cc(-c3cnc4ccc(C(F)F)nn34)ncn2)C1` (stereo not drawn) [II-222, 1-(3-(6-(6-(Difluoromethyl)imidazo[12-b]pyridazin-3-yl)pyrimidin-4-yl)piperidin-1-yl)ethan-1-one] returned a Ki on GCN2 kinase (setting [3]) of 10 to 1000 nM. This compound also displayed an IC50 in test [1] (compounds of Formula II) of 500 to 5000 nM.
Take `COC1CC(c2cn[nH]c2)CN(c2ccnc(-c3cnc4cnc(C(F)(F)F)cn34)n2)C1` (stereo not drawn) [IV-396, 3-(4-(3-Methoxy-5-(1H-pyrazol-4-yl)piperidin-1-yl)pyrimidin-2-yl)-6-(trifluoromethyl)imidazo[1,2-a]pyrazine]: the Ki on GCN2 kinase (setting [2]) was less than 10 nM. In test [1] (compounds of Formula IV), this compound yielded an IC50 of 500 to 5000 nM.
Compound `NS(=O)(=O)N1CCOC2(CN(c3cc(-c4cnc5ccc(C(F)F)nn45)ncn3)C2)C1` [II-285, 2-(6-(6-(Difluoromethyl)imidazo[1,2-b]pyridazin-3-yl)pyrimidin-4-yl)-5-oxa-2,8-diazaspiro[3.5]nonane-8-sulfonamide] showed a Ki on GCN2 kinase (setting [3]) of 10 to 1000 nM. Further, the half-inhibitory concentration (IC50) in test [1] (compounds of Formula II) was more than 5000 nM.
For `CCS(=O)(=O)N[C@H]1CCCN(c2cc(-c3cnc4ccc(C(F)F)nn34)ncn2)C1` [II-421, (S)—N-(1-(6-(6-(Difluoromethyl)imidazo[1,2-b]pyridazin-3-yl)pyrimidin-4-yl)piperidin-3-yl)ethanesulfonamide], in that order: 10 to 1000 nM and 500 to 5000 nM.
The compound `FC(F)c1cn2c(-c3nccc(N4CCCC(c5c[nH]cn5)C4)n3)cnc2cn1` (stereo not drawn) [IV-53, 3-(4-(3-(1H-Imidazol-4-yl)piperidin-1-yl)pyrimidin-2-yl)-6-(difluoromethyl)imidazo[1,2-a]pyrazine] registered a Ki at GCN2 kinase (setting [2]) of 10 to 100 nM. The compound further showed a half-inhibitory concentration (IC50) in test [1] (compounds of Formula IV) of 500 to 5000 nM.
`CNCCOc1cc(-c2cnc3ccc(C(F)F)nn23)cc(N2CCCC(CNS(C)(=O)=O)C2)n1` (stereo not drawn) [II-74, N-((1-(4-(6-(Difluoromethyl)imidazo[1,2-b]pyridazin-3-yl)-6-(2-(methylamino)ethoxy)pyridin-2-yl)piperidin-3-yl)methyl)methanesulfonamide] had a Ki at GCN2 kinase (setting [3]) of less than 10 nM. The IC50 in test [1] (compounds of Formula II) fell in the range of 500 to 5000 nM.
Consider `FC(F)(F)c1cn2c(-c3ccnc(N4CCOC(c5cn[nH]c5)C4)n3)cnc2cn1` (stereo not drawn) [IV-40, 2-(1H-Pyrazol-4-yl)-4-(4-(6-(trifluoromethyl)imidazo[1,2-a]pyrazin-3-yl)pyrimidin-2-yl)morpholine], for which the Ki on GCN2 kinase (setting [2]) was 10 to 100 nM. In addition, the IC50 in test [1] (compounds of Formula IV) is less than 500 nM.
`CC1CN(c2ccnc(-c3cnc4cnc(Cl)cn34)n2)CC(c2cn[nH]c2)O1` (stereo not drawn) [IV-193, 4-(2-(6-Chloroimidazo[1,2-a]pyrazin-3-yl)pyrimidin-4-yl)-2-methyl-6-(1H-pyrazol-4-yl)morpholine]: the Ki at GCN2 kinase (setting [2]) was less than 10 nM. The compound further registered an IC50 in test [1] (compounds of Formula IV) of less than 500 nM.
In the case of `NS(=O)(=O)CCC1CCCCN1c1cc(-c2cnc3ccc(C(F)F)nn23)ncn1` (stereo not drawn) [II-283, 2-(1-(6-(6-(Difluoromethyl)imidazo[1,2-b]pyridazin-3-yl)pyrimidin-4-yl)piperidin-2-yl)ethane-1-sulfonamide], on GCN2 kinase (setting [3]), the Ki was in the range of 10 to 1000 nM. This compound displayed a concentration for half-maximal inhibition (IC50) in test [1] (compounds of Formula II) of more than 5000 nM.
`CC1CN(c2ccnc(-c3cnc4cnc(C#N)cn34)n2)CC(c2cn[nH]c2)O1` (stereo not drawn) [IV-194, 3-(4-(2-Methyl-6-(1H-pyrazol-4-yl)morpholino)pyrimidin-2-yl)imidazo[1,2-a]pyrazine-6-carbonitrile] registered a Ki at GCN2 kinase (setting [2]) of less than 10 nM. The compound further gave a 50% inhibitory concentration (IC50) in test [1] (compounds of Formula IV) of less than 500 nM.
Take `Cc1noc([C@@H]2CN(c3cc(-c4cnc5ccc(C(F)(F)F)nn45)ccn3)C[C@H](C)O2)n1` [II-739]: the Ki on GCN2 kinase (setting [3]) fell in the range of 10 to 1000 nM. The compound also displayed a concentration for half-maximal inhibition (IC50) in test [1] (compounds of Formula II) of less than 500 nM.
Compound `COc1cn2c(-c3nccc(N4CCN(C(C)=O)CC4)n3)cnc2cn1` [IV-25, 1-(4-(2-(6-Methoxyimidazo[1,2-a]pyrazin-3-yl)pyrimidin-4-yl)piperazin-1-yl)ethan-1-one] returned a Ki at GCN2 kinase (setting [2]) of 100 to 1000 nM. The compound further returned an IC50 in test [1] (compounds of Formula IV) of more than 5000 nM.
`O=C(O)[C@H]1CCCN(c2cc(-c3cnc4ccc(C(F)F)nn34)ncn2)C1` [II-505, (S)-1-(6-(6-(Difluoromethyl)imidazo[1,2-b]pyridazin-3-yl)pyrimidin-4-yl)piperidine-3-carboxylic acid] registered a Ki at GCN2 kinase (setting [3]) of 10 to 1000 nM. In test [1] (compounds of Formula II), this compound registered a 50% inhibitory concentration (IC50) of more than 5000 nM.
On to `CC1CN(c2ccnc(-c3cnc4cnc(Br)cn34)n2)CC(c2cn[nH]c2)N1` (single isomer, unassigned) [IV-365, 6-Bromo-3-(4-(3-methyl-5-(1H-pyrazol-4-yl)piperazin-1-yl)pyrimidin-2-yl)imidazo[1,2-a]pyrazine], for which, at GCN2 kinase (setting [2]), the Ki was less than 10 nM. For the same compound, in test [1] (compounds of Formula IV), the IC50 fell in the range of 500 to 5000 nM.
As for `CS(=O)(=O)NC[C@@H]1CN(c2cc(-c3cnc4ccc(C(F)F)nn34)ccn2)CCO1` [II-121, N-[[(2S)-4-[4-[6-(Difluoromethyl)imidazo[1,2-b]pyridazin-3-yl]-2-pyridyl]morpholin-2-yl]methyl]methanesulfonamide], at GCN2 kinase (setting [3]), the Ki was less than 10 nM. The compound also had a half-maximal inhibitory concentration (IC50) in test [1] (compounds of Formula II) of less than 500 nM.
For `CC1CC(CNS(C)(=O)=O)C(C)N(c2cc(-c3cnc4ccc(C(F)F)nn34)ncn2)C1` (single isomer, unassigned) [II-546, N-((1-(6-(6-(Difluoromethyl)imidazo[1,2-b]pyridazin-3-yl)pyrimidin-4-yl)-2,5-dimethylpiperidin-3-yl)methyl)methanesulfonamide], in that order: less than 10 nM and less than 500 nM.
The compound `C[C@@H]1C[C@H](NS(C)(=O)=O)CN(c2cc(-c3cnc4ccc(C(F)F)nn34)ncn2)C1` [II-449, N-((3S,5R)-1-(6-(6-(Difluoromethyl)imidazo[1,2-b]pyridazin-3-yl)pyrimidin-4-yl)-5-methylpiperidin-3-yl)methanesulfonamide] came in with a Ki on GCN2 kinase (setting [3]) of less than 10 nM. Further, the IC50 in test [1] (compounds of Formula II) was less than 500 nM.
Taken in the same sequence, the figures for `CNc1cc(-c2cnc3ccc(C(F)F)nn23)cc(N2CC(C)C(F)(F)C(CNS(C)(=O)=O)C2)n1` (stereo not drawn) [II-65, N-((1-(4-(6-(Difluoromethyl)imidazo[1,2-b]pyridazin-3-yl)-6-(methylamino)pyridin-2-yl)-4,4-difluoro-5-methylpiperidin-3-yl)methyl)methanesulfonamide] were less than 10 nM and 500 to 5000 nM.
Take `CC1CN(c2nccc(-c3cnc4cnc(Cl)cn34)n2)C(C)C(c2cn[nH]c2)N1` (single isomer, unassigned) [IV-407, 6-Chloro-3-(2-(2,5-dimethyl-3-(1H-pyrazol-4-yl)piperazin-1-yl)pyrimidin-4-yl)imidazo[1,2-a]pyrazine]: at GCN2 kinase (setting [2]), the Ki is less than 10 nM. For the same compound, in test [1] (compounds of Formula IV), the 50% inhibitory concentration (IC50) was 500 to 5000 nM.
The compound `CC1CN(c2ccnc(-c3cnc4ccc(C(F)F)nn34)c2)CC(CNS(C)(=O)=O)C1(F)F` (stereo not drawn) [II-75, N-((1-(2-(6-(Difluoromethyl)imidazo[1,2-b]pyridazin-3-yl)pyridin-4-yl)-4,4-difluoro-5-methylpiperidin-3-yl)methyl)methanesulfonamide] had a Ki on GCN2 kinase (setting [3]) of less than 10 nM. In addition, the IC50 in test [1] (compounds of Formula II) is less than 500 nM.
